Data taken from US10828301B2, “2,4-pyrimidinediamine compounds and their uses” (Rigel Pharmaceuticals, Inc, priority 2002, dated 2020).

Legend:
[1] = system: cultured human mast cells (CHMC); assay: CHMC low cell density IgE activation: tryptase and LTC4 assays; format: cell-based; conditions: Low Density CHMC, anti-IgE activation, tryptase readout, read-out: CHMC anti-IgE Tryptase
Outline: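 Cultured human mast cells at low density (1000-1500 per well) rested 1 h at 37° C, then stimulated with anti-IgE for 30 min at 37° C. Supernatant tryptase measured with fluorogenic substrate (30 min, room temperature); LTC4 quantified by ELISA on diluted supernatant.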

[2] = system: cultured human mast cells (CHMC); assay: CHMC low cell density ionomycin activation: tryptase assay; format: cell-based; conditions: Low Density CHMC, ionomycin activation, tryptase readout, read-out: CHMC Ionomycin Tryptase

| Structure (SMILES) | IC50 ([1]; Homo sapiens, Mast cell) [µM] | IC50 ([2]; Homo sapiens, Mast cell) [µM] | IC50 [1] [µM] | IC50 [2] [µM] |
| --- | --- | --- | --- | --- |
| Cc1cc(Nc2ncc(F)c(Nc3cc(C)c(O)cc3C)n2)c(C)cc1O [Compound R926623, N2,N4-Bis(2,5-dimethyl-4-hydroxyphenyl)-5-fluoro-2,4-pyrimidinediamine] | > 10 | > 10 | – | – |
| Fc1cnc(NCc2csc3ccccc23)nc1NCc1csc2ccccc12 [Compound R945145, N2,N4-Bis(benzothiophen-3-ylmethyl)-5-fluoro-2,4-pyrimidinediamine] | > 10 | > 10 | – | – |
| Fc1cnc(Nc2ccc3[nH]ccc3c2)nc1Nc1ccc2[nH]ccc2c1 [Compound R926582, N2,N4-Bis(indol-5-yl)-5-fluoro-2,4-pyrimidinediamine] | 1.3 | > 10 | – | – |
| CC(C)c1cccc(Nc2ncc(F)c(Nc3cccc(C(C)C)c3)n2)c1 [Compound R940297, N2,N4-Bis(3-isopropylphenyl)-5-fluoro-2,4-pyrimidinediamine] | 3.46 | 10 | – | – |
| CNC(=O)c1cc2cc(Nc3ncc(F)c(Nc4cccc(C(C)(C)C)c4)n3)ccc2o1 [Compound R940291, N4-(3-tert-Butylphenyl)-5-fluoro-N2-[2-(N-methylamino)carbonylbenzofur-5-yl]-2,4-pyrimidinediamine] | 0.396 | > 10 | – | – |
| CC(C)(C)c1ccc(Nc2nc(Nc3ccc4c(c3)CC(C(=O)O)O4)ncc2F)cc1 (stereo not drawn) [Compound R926720, N4-(4-tert-Butylphenyl)-5-fluoro-N2-[2,3-dihydro-2-(carboxy)benzofuran-5-yl]-2,4-pyrimidinediamine] | 1.55 | > 10 | – | – |
| COC(=O)c1cc2cc(Nc3ncc(F)c(Nc4ccc(Cl)cc4)n3)ccc2o1 [Compound R927026, N4-(4-Chlorophenyl)-5-fluoro-N2-(2-methoxycarbonylbenzofuran-5-yl)-2,4-pyrimidinediamine] | > 10 | > 10 | – | – |
| Fc1cnc(Nc2cccc(-c3cnco3)c2)nc1Nc1ccc2c(c1)OCCO2 [Compound R926813, N4-(3,4-Ethylenedioxyphenyl)-5-fluoro-N2-[3-(1,3-oxazol-5-yl)phenyl]-2,4-pyrimidinediamine] | 0.152 | > 10 | – | – |
| CCOC(=O)Nc1ccc(Nc2ncc(F)c(Nc3ccc(NC(=O)OCC)c(O)c3)n2)cc1O [Compound R926340, N2,N4-Bis(4-ethoxycarbonylamino-3-hydroxyphenyl)-5-fluoro-2,4-pyrimidinediamine] | 3.23 | > 10 | – | – |
| COc1ccc(Nc2nc(Nc3cccc(C(C)(C)C)c3)ncc2F)cc1OC [Compound R940260, N2-(3-tert-Butylphenyl)-N4-(3,4-dimethoxyphenyl)-5-fluoro-2,4-pyrimidinediamine] | 1.13 | > 10 | – | – |
| CCCCCCOc1ccc(Nc2ncc(F)c(Nc3ccc4c(c3)OCCO4)n2)cc1 [Compound R920664, N4-(3,4-Ethylenedioxyphenyl)-5-fluoro-N2-(4-n-hexyloxyphenyl)-2,4-pyrimidindiamine] | > 10 | > 10 | – | – |
| COc1ccc(-c2ccccc2)cc1Nc1ncc(Br)c(Nc2cc(-c3ccccc3)ccc2OC)n1 [Compound R925799, N2,N4-Bis(2-methoxy-5-phenylphenyl)-5-bromo-2,4-pyrimidinediamine] | > 10 | > 10 | – | – |
| Oc1cccc(Nc2nc(NCc3csc4ccccc34)ncc2F)c1 [Compound R945164, N2-(Benzothiophen-3-ylmethyl)-5-fluoro-N4-(3-hydroxyphenyl)-2,4-pyrimidinediamine] | 10 | > 10 | – | – |
| COc1cc(-c2ccccc2)c(C)cc1Nc1ccnc(Nc2cc(C)c(-c3ccccc3)cc2OC)n1 [Compound R925808, N2,N4-Bis(2-methoxy-5-methyl-4-phenylphenyl)-2,4-pyrimidinediamine] | > 10 | > 10 | – | – |
| Oc1cccc(Nc2nc(Nc3ccc4c(c3)OCC=N4)ncc2F)c1 [Compound R908706, N2-(1,4-Benzoxazin-7-yl)-5-fluoro-N4-(3-hydroxyphenyl)-2,4-pyrimidinediamine] | 0.445 | > 10 | – | – |
| Oc1ccc(CCNc2ncc(Br)c(NCCc3ccc(O)cc3)n2)cc1 [Compound R925792, N2,N4-Bis[2-(4-hydroxyphenyl)ethyl]-5-bromo-2,4-pyrimidinediamine] | 6.25 | > 10 | – | – |
| CC(C)Oc1cccc(Nc2ncc(F)c(Nc3cccc(N)c3)n2)c1 [Compound R950164, N4-(3-Aminophenyl)-5-fluoro-N2-(3-isopropoxyphenyl)-2,4-pyrimidinediamine] | 1.89 | > 10 | – | – |
| CNC(=O)Cn1ncc2ccc(Nc3nc(Nc4ccc5c(c4)OCCO5)ncc3F)cc21 [Compound R935225, N2-(3,4-Ethylenedioxyphenyl)-5-fluoro-N4-[1-(N-methylaminocarbonyl)methyl-indazoline-6-yl]-2,4-pyrimidinediamine] | – | – | 6.5 | > 10 |
| Brc1cnc(Nc2ccccc2-c2ccccc2)nc1Nc1ccccc1-c1ccccc1 [Compound R925798, N2,N4-Bis(2-phenylphenyl)-5-bromo-2,4-pyrimidinediamine] | > 10 | > 10 | – | – |
| N#Cc1cc(Nc2ncc(F)c(Nc3ccc(O)c(C#N)c3)n2)ccc1O [Compound R950092, N2,N4-Bis(3-cyano-4-hydroxyphenyl)-5-fluoro-2,4-pyrimidinediamine] | > 10 | > 10 | – | – |
| Cc1cnc(Nc2ccc3c(c2)OCCO3)nc1Nc1ccc2c(c1)OCCO2 [Compound R926242, N2,N4-Bis(3,4-ethylenedioxyphenyl)-5-methyl-2,4-pyrimidinediamine] | 4.2 | > 10 | – | – |
| Oc1cccc(Nc2ncc(F)c(Nc3ccc4c(c3)N=CCO4)n2)c1 [Compound R909243, N4-(1,4-benzoxazin-6-yl)-5-fluoro-N2-(3-hydroxyphenyl)-2,4-pyrimidinediamine] | 0.263 | > 10 | – | – |
| C=CCNc1ncc(Br)c(Nc2cccc(O)c2)n1 [Compound R925822, N2-Allyl-5-bromo-N4-(3-hydroxyphenyl)-2,4-pyrimidinediamine] | > 10 | > 10 | – | – |

Results, then the compound that gave them:

| IC50 ([1]; Homo sapiens, Mast cell) [µM] | IC50 ([2]; Homo sapiens, Mast cell) [µM] | IC50 [1] [µM] | IC50 [2] [µM] | Structure (SMILES) |
| --- | --- | --- | --- | --- |
| 1.89 | > 10 | – | – | CC(C)Nc1cccc(Nc2ncc(F)c(Nc3cccc(NC(C)C)c3)n2)c1 [Compound R950166, N2,N4-Bis[3-(N-isopropyl)aminophenyl]-5-fluoro-2,4-pyrimidinediamine] |
| 3.76 | > 10 | – | – | Oc1cccc(Nc2ncc(F)c(NCc3csc4ccccc34)n2)c1 [Compound R945146, N4-(Benzothiophen-3-ylmethyl)-5-fluoro-N2-(3-hydroxyphenyl)-2,4-pyrimidinediamine] |
| > 10 | > 10 | – | – | CC(C)c1ccc(O)cc1Nc1ncc(F)c(Nc2cc(O)ccc2C(C)C)n1 [Compound R935077, N2,N4-Bis(5-hydroxy-2-isopropylphenyl)-5-fluoro-2,4-pyrimidinediamine] |
| 1.38 | 6.3 | – | – | Nc1cc(Nc2ncc(F)c(Nc3ccc(Nc4ccccc4)c(N)c3)n2)ccc1Nc1ccccc1 [Compound R950125, N2,N4-Bis[3-amino-4-(N-phenylamino)-phenyl]-5-fluoro-2,4-pyrimidinediamine] |
| 0.564 | > 10 | – | – | Oc1cccc(Nc2ncc(F)c(Nc3ccc(OC(F)(F)F)c(Cl)c3)n2)c1 [Compound R920411, N4-(3-Chloro-4-trifluoromethoxyphenyl)-5-fluoro-N2-(3-hydroxyphenyl)-2,4-pyrimidinediamine] |
| 1.05 | > 10 | – | – | CNC(=O)C1Cc2cc(Nc3ncc(F)c(Nc4ccc(OC)nc4OC)n3)ccc2O1 (racemic) [Compound R927038, (±)-N4-(2,6-Dimethoxypyridin-3-yl)-N2-[2,3-dihydro-2-(N-methylamino)carbonylbenzofuran-5-yl]-5-fluoro-2,4-pyrimidinediamine] |
| 0.457 | > 10 | – | – | COc1ccc(Nc2nc(Nc3cccc(O)c3)ncc2F)cc1Cl [Compound R926945, N4-(3-Chloro-4-methoxyphenyl)-5-fluoro-N2-(3-hydroxyphenyl)-2,4-pyrimidinediamine] |
| 10 | > 10 | – | – | O=C(O)c1ccc(Nc2ncc(F)c(Nc3ccc(C(=O)O)c(O)c3)n2)cc1O [Compound R945061, N2,N4-Bis(3-hydroxy-4-carboxyphenyl)-5-fluoro-2,4-pyrimidinediamine] |
| > 10 | > 10 | – | – | Cc1ccc(-c2ccccc2)cc1Nc1ncc(Br)c(Nc2cc(-c3ccccc3)ccc2C)n1 [Compound R925800, N2,N4-Bis(2-methyl-5-phenylphenyl)-5-bromo-2,4-pyrimidinediamine] |
| > 10 | > 10 | – | – | CCOC(=O)CNc1nc(NCC(=O)OCC)c([N+](=O)[O-])c(C(=O)OCC)n1 [Compound R925864, N2,N4-Bis(ethoxycarbonylmethyl)-6-ethoxycarbonyl-5-nitro-2,4-pyrimidinediamine] |
| 0.146 | > 10 | – | – | COC(=O)c1cc2cc(Nc3ncc(F)c(Nc4ccc5c(c4)OCCO5)n3)ccc2o1 [Compound R926690, N4-(3,4-Ethylenedioxyphenyl)-5-fluoro-N2-[2-(methoxycarbonyl)benzofuran-5-yl]-2,4-pyrimidinediamine] |
| 1.1 | > 10 | – | – | Fc1cnc(Nc2ccc(SC(F)(F)F)cc2)nc1Nc1ccc2c(c1)OCCO2 [Compound R926899, N4-(3,4-Ethylenedioxyphenyl)-5-fluoro-N2-(4-trifluoromethylthiophenyl)-2,4-pyrimidinediamine] |
| 0.66 | > 10 | – | – | COc1ccc(Nc2ncc(F)c(Nc3ccc(OC)c(O)c3)n2)cc1O [Compound R926339, N2,N4-Bis(3-hydroxy-4-methoxyphenyl)-5-fluoro-2,4-pyrimidinediamine] |
